Measurements reported in US12414952B2 (Merck Sharp & Dohme LLC, priority 2018, dated 2025).

Legend:
[1] = molecular target: T1, human A2a adenosine receptor (Homo sapiens (Human), UniProt P29274); assay: A2a binding affinity using SPA, Method (B); conditions: Method (B): [3H]SCH58261 SPA
Excerpt: The A2a receptor affinity binding assay measured the amount of binding of a tritiated ligand with high affinity for the A2a adenosine receptor to membranes made from HEK293 or CHO cells recombinantly expressing the human A2a adenosine receptor, in the presence of varying concentrations of a compound of the invention. The data were generated using either filtration binding or a homogenous scintillation proximity assay (SPA).
Method (B): Measurement of A2a Binding Affinity Using SPA
Binding affinity using SPA was conducted as follows. Test compounds (50 nL) were dispensed into individual wells of a 384-well OptiPlate™ well (Perkin Elmer) by Echo® acoustic liquid transfer (Labcyte). 20 μL of 1.25 nM [^3H] SCH58261 ((7-(2-phenylethyl)-5-amino-2-(2-furyl)-pyrazolo-[4,3-e]-1,2,4-triazolo[1,5-c]pyrimidine)) in DPBS assay buffer (Dulbecco's phosphate buffered saline without calcium and magnesium, ThermoFisher Scientific, Cat. No. A1285601) supplemented with 10 mM MgCl2 was added. A2a receptor-expressing membranes were incubated with 20 μg/mL adenosine deaminase (Roche, Cat. No. 10 102 105 001) for 15 min at room temperature. The receptor-expressing membranes were then combined with wheat germ agglutinin-coated yttrium silicate SPA beads (GE Healthcare, Cat. No. RPNQ0023) in a ratio of 1:1000 (w/w) and incubated for 30 min at room temperature. 30 μL of the membrane/bead mixture (0.25 μg and 25 μg per well respectively) were added to the 384-well OptiPlate™ well. To define total and non-specific binding, wells containing 1% DMSO or 1 μM CGS15943 (Tocris Bioscience, Cat. No. 1699) respectively were also included in the experiment. The plate was incubated for one h at room temperature with agitation. The assay plate was then incubated for an h to allow the beads to settle before data were collected using a TopCount® (Perkin Elmer) scintillation counter. After normalization to total and non-specific binding, the percent effect at each compound concentration was calculated. The plot of percent effect versus the log of compound concentration was analyzed electronically using a 4-parameter logistic fit based on the Levenberg-Marquardt algorithm to generate IC50 values.

[2] = molecular target: T1, human A2a adenosine receptor; assay: A2a binding affinity using radioligand binding, Method (A); conditions: Method (A): [3H]SCH58261 filtration binding
How it was run: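 Membranes from HEK293 or CHO cells expressing human A2a were preincubated with compound for 15–30 min at room temperature. [3H]SCH58261 was then added (4 nM working dilution) in 50 mM Tris pH 7.4, 10 mM MgCl2, 0.005% Tween20 for 60 min at room temperature. Bound radioactivity after filtration was normalised to total and non-specific binding, and IC50 came from 4-parameter logistic fits.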

[3] = molecular target: human A2b adenosine receptor (Homo sapiens (Human), UniProt P29275); assay: A2b binding affinity, radioligand filtration binding assay; conditions: tritiated proprietary A2b antagonist, HEK293 membranes
human A2b adenosine receptor, sequence (P29275 whole entry): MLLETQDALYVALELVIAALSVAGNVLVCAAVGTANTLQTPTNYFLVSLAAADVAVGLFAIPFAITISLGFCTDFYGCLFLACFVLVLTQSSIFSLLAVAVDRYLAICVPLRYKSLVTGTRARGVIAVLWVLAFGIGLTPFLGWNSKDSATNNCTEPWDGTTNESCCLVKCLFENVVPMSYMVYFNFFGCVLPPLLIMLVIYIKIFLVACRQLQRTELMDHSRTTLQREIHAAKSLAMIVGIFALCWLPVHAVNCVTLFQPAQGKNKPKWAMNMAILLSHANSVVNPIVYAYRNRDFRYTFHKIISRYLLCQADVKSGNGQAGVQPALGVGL
Description: Measurement of A2b Binding Affinity
The reported affinity of the compounds of the invention for the human A2b adenosine receptor was determined experimentally using a radioligand filtration binding assay. This assay measures the amount of binding of a tritiated proprietary A2b receptor antagonist, in the presence and absence of a compound of the invention, to membranes made from HEK293 cells recombinantly expressing the human A2b adenosine receptor (Perkin Elmer, Cat. No. ES-013-C).
The filter plate was incubated for at least 1 h at 55° C. and allowed to dry. The bottom of the filter plate was then sealed with backing tape. […] The plates were then incubated for at least 20 min, and then the amount of radioactivity remaining in each well was determined using a TopCount® (Perkin Elmer) scintillation counter. After normalization to total and non-specific binding, the percent effect at each compound concentration was calculated. The plot of percent effect versus the log of compound concentration was analyzed electronically using a 4-parameter logistic fit based on the Levenberg-Marquardt algorithm to generate IC50 values.

T1 sequence (P29274 whole entry): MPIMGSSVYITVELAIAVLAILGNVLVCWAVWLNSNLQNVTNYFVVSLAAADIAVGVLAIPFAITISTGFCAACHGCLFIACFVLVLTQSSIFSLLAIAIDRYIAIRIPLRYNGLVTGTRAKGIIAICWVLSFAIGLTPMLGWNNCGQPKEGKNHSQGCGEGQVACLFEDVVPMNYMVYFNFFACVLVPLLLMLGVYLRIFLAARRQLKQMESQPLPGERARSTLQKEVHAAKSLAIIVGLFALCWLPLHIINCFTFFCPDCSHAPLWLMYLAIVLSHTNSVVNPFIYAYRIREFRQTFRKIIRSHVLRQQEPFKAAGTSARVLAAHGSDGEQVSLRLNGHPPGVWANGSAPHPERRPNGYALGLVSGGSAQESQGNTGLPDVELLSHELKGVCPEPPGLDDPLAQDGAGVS

IC50 [1] [nM] | IC50 [2] [nM] | IC50 [3] [nM] | Compound
2.4 |  |  | Cc1nc2c(s1)CN(CCc1nc3c(C)c(-c4ncco4)nc(N)n3n1)CC2 [Example 1.8]
6.6 |  |  | Cc1nc2c(s1)CN(CCc1nc3c(C)c(-c4cnco4)nc(N)n3n1)CC2 [Example 2.26]
4.7 |  |  | Cc1c(-c2ncco2)nc(N)n2nc(Cc3cc[nH]n3)nc12 [Example 7.5, 2-((1H-pyrazol-3-yl)methyl)-8-methyl-7-(oxazol-2-yl)-[1,2,4]triazolo[1,5-c]pyrimidin-5-amine]
0.7 |  |  | Cc1c(-c2ncco2)nc(N)n2nc(Cc3ccccn3)nc12 [Example 9.6, 8-methyl-7-(oxazol-2-yl)-2-(pyridin-2-ylmethyl)-[1,2,4]triazolo[1,5-c]pyrimidin-5-amine]
0.5 |  |  | Cc1cccc(Cc2nc3c(C)c(-c4ncco4)nc(N)n3n2)n1 [Example 9.7, 8-methyl-2-((6-methylpyridin-2-yl)methyl)-7-(oxazol-2-yl)-[1,2,4]triazolo[1,5-c]pyrimidin-5-amine]
0.6 |  |  | Cc1cccnc1Cc1nc2c(C)c(-c3ncco3)nc(N)n2n1 [Example 9.8, 8-methyl-2-((3-methylpyridin-2-yl)methyl)-7-(oxazol-2-yl)-[1,2,4]triazolo[1,5-c]pyrimidin-5-amine]
 | 0.4 | 20.3 | Cc1c(-c2ncco2)nc(N)n2nc(CCN3CCn4c(cnc4C4CC(F)(F)C4)C3)nc12 [Example 17.2, 2-(2-(3-(3,3-difluorocyclobutyl)-5,6-dihydroimidazo[1,5-a]pyrazin-7(8H)-yl)ethyl)-8-methyl-7-(oxazol-2-yl)-[1,2,4]triazolo[1,5-c]pyrimidin-5-amine]
 | 4.2 | 17.7 | Cc1c(-c2ncco2)nc(N)n2nc(CCN3CCn4c(cnc4C4CCCC4)C3)nc12 [Example 17.3, 2-(2-(3-cyclopentyl-5,6-dihydroimidazo[1,5-a]pyrazin-7(8H)-yl)ethyl)-8-methyl-7-(oxazol-2-yl)-[1,2,4]triazolo[1,5-c]pyrimidin-5-amine]
 | 9.4 | 1430 | Cc1c(-c2ncco2)nc(N)n2nc(CCN3Cc4cn(CC(C)(C)O)nc4C3)nc12 [Example 17.4, 1-(5-(2-(5-amino-8-methyl-7-(oxazol-2-yl)-[1,2,4]triazolo[1,5-c]pyrimidin-2-yl)ethyl)-5,6-dihydropyrrolo[3,4-c]pyrazol-2(4H)-yl)-2-methylpropan-2-ol]
 | 43.6 | 688 | Cc1c(-c2ncco2)nc(N)n2nc(CCN3Cc4cnn(C)c4C3)nc12 [Example 17.5, 8-methyl-2-(2-(1-methyl-4,6-dihydropyrrolo[3,4-c]pyrazol-5(1H)-yl)ethyl)-7-(oxazol-2-yl)-[1,2,4]triazolo[1,5-c]pyrimidin-5-amine]
 | 16.3 | 677 | Cc1cc2n(n1)CCN(CCc1nc3c(C)c(-c4ncco4)nc(N)n3n1)C2 [Example 17.6, 8-methyl-2-(2-(2-methyl-6,7-dihydropyrazolo[1,5-a]pyrazin-5(4H)-yl)ethyl)-7-(oxazol-2-yl)-[1,2,4]triazolo[1,5-c]pyrimidin-5-amine]
 | 0.6 | 17.8 | Cc1c(-c2ncco2)nc(N)n2nc(CCN3CCn4c(cnc4C45CC(C4)C5)C3)nc12 [Example 17.7, 2-(2-(3-(bicyclo[1.1.1]pentan-1-yl)-5,6-dihydroimidazo[1,5-a]pyrazin-7(8H)-yl)ethyl)-8-methyl-7-(oxazol-2-yl)-[1,2,4]triazolo[1,5-c]pyrimidin-5-amine]
 | 4.1 | 97 | Cc1c(-c2ncco2)nc(N)n2nc(CCN3CCc4nn(C5CC(F)(F)C5)cc4C3)nc12 [Example 17.9, 2-(2-(2-(3,3-difluorocyclobutyl)-2,4,6,7-tetrahydro-5H-pyrazolo[4,3-c]pyridin-5-yl)ethyl)-8-methyl-7-(oxazol-2-yl)-[1,2,4]triazolo[1,5-c]pyrimidin-5-amine]
 | 0.6 | 20.6 | Cc1c(-c2ncco2)nc(N)n2nc(CCN3CCc4c(cnn4C4CC(F)(F)C4)C3)nc12 [Example 17.10, 2-(2-(1-(3,3-difluorocyclobutyl)-1,4,6,7-tetrahydro-5H-pyrazolo[4,3-c]pyridin-5-yl)ethyl)-8-methyl-7-(oxazol-2-yl)-[1,2,4]triazolo[1,5-c]pyrimidin-5-amine]
 | 1.3 | 301 | Cc1c(-c2ncco2)nc(N)n2nc(CCN3CCc4nn(C5CCCC5)cc4C3)nc12 [Example 17.11, 2-(2-(2-cyclopentyl-2,4,6,7-tetrahydro-5H-pyrazolo[4,3-c]pyridin-5-yl)ethyl)-8-methyl-7-(oxazol-2-yl)-[1,2,4]triazolo[1,5-c]pyrimidin-5-amine]
 | 1.2 | 45 | Cc1c(-c2ncco2)nc(N)n2nc(CCN3CCc4c(cnn4C4CCCC4)C3)nc12 [Example 17.12, 2-(2-(1-cyclopentyl-1,4,6,7-tetrahydro-5H-pyrazolo[4,3-c]pyridin-5-yl)ethyl)-8-methyl-7-(oxazol-2-yl)-[1,2,4]triazolo[1,5-c]pyrimidin-5-amine]
 | 0.7 | 8.1 | Cc1c(-c2ncco2)nc(N)n2nc(CCN3CCc4c(nnn4C4CCCC4)C3)nc12 [Example 17.13, 2-(2-(1-cyclopentyl-1,4,6,7-tetrahydro-5H-[1,2,3]triazolo[4,5-c]pyridin-5-yl)ethyl)-8-methyl-7-(oxazol-2-yl)-[1,2,4]triazolo[1,5-c]pyrimidin-5-amine]
 | 0.5 | 41.7 | Cc1c(-c2ncco2)nc(N)n2nc(CCN3CCc4c(nnn4C4CC(F)(F)C4)C3)nc12 [Example 17.14, 2-(2-(1-(3,3-difluorocyclobutyl)-1,4,6,7-tetrahydro-5H-[1,2,3]triazolo[4,5-c]pyridin-5-yl)ethyl)-8-methyl-7-(oxazol-2-yl)-[1,2,4]triazolo[1,5-c]pyrimidin-5-amine]
 | 2.2 | 32 | Cc1c(-c2ncco2)nc(N)n2nc(CCN3CCc4c(nnn4C45CC(C4)C5)C3)nc12 [Example 17.15, 2-(2-(1-(bicyclo[1.1.1]pentan-1-yl)-1,4,6,7-tetrahydro-5H-[1,2,3]triazolo[4,5-c]pyridin-5-yl)ethyl)-8-methyl-7-(oxazol-2-yl)-[1,2,4]triazolo[1,5-c]pyrimidin-5-amine]
 | 1.2 | 1100 | Cc1c(-c2ncco2)nc(N)n2nc(CCN3CCCC(F)(F)C3)nc12 [Example 17.16, 2-(2-(3,3-difluoropiperidin-1-yl)ethyl)-8-methyl-7-(oxazol-2-yl)-[1,2,4]triazolo[1,5-c]pyrimidin-5-amine]
 | 34.9 | 9670 | CCOC(=O)c1cnn(CCc2nc3c(C)c(-c4ncco4)nc(N)n3n2)c1 [Example 17.17, ethyl 1-(2-(5-amino-8-methyl-7-(oxazol-2-yl)-[1,2,4]triazolo[1,5-c]pyrimidin-2-yl)ethyl)-1H-pyrazole-4-carboxylate]
 | 13.5 | 117 | Nc1nc(-c2cc(F)ccc2F)c(C2CC2)n2nc(Cc3ccccc3)nc12 [Example 20.5, 2-benzyl-5-cyclopropyl-6-(2,5-difluorophenyl)-[1,2,4]triazolo[1,5-a]pyrazin-8-amine]
 | 0.9 | 52.8 | CC(C)n1nnc2c1CCN(CCc1nc3c(C(F)(F)F)c(-c4cccc(F)c4)nc(N)n3n1)C2 [Example 23.7, 7-(3-fluorophenyl)-2-(2-(1-isopropyl-1,4,6,7-tetrahydro-5H-[1,2,3]triazolo[4,5-c]pyridin-5-yl)ethyl)-8-(trifluoromethyl)-[1,2,4]triazolo[1,5-c]pyrimidin-5-amine]
